Measurements taken from PMC7601446, “Significant Decreased Expressions of CaN, VEGF, SLC39A6 and SFRP1 in MDA-MB-231 Xenograft Breast Tumor Mice Treated with Moringa oleifera Leaves and Seed Residue (MOLSr) Extracts” (Nutrients, 2020).

How the values were obtained:
[1] = Ferric reducing antioxidant power (FRAP) assay; details: mean ±2 standard deviation (n = 3)
Procedure: Moringa mixtures were subjected to phytochemical analysis following methods described by Harborne (1998) and Kokate (2005), which are based on visual observation of color changes or the formation of precipitates. Quantitative analysis of total flavonoid content (TFC) and total phenolic content (TPC) of moringa mixtures were determined spectrophotometrically by the aluminum calorimetric method (quercetin as the reference standard) and Folin–Ciocalteu method (gallic acid as the reference standard) with minor modifications, respectively. […] These antioxidant assays were carried out according to Yang et al. (2011) with slight modifications. Detailed steps were described previously by Abdul Hisam et al. (2018). All the experiments were conducted in triplicate.

calcineurin (CaN) = assay: Serum ELISA of calcineurin in xenograft mice; type: in vivo; details: high-dose M1S9 or TAM 30 mg/kg vs non-treated xenograft mice
Procedure: (§1) Body weight and tumor volume were measured weekly up to two months. The tumor-growth-inhibition rate (I.R.) was calculated using the following formula: I.R. (%) = {[(Average tumor volume of the control − average tumor volume of the treated group)/Average tumor volume of the control] * 100%}. After two months, serum blood was collected for biochemical analysis. Subsequently, all organs (liver, kidney, spleen, heart and lung) and tumors were excised, weighted and calculated as relative organ weight (expressed as the percentage of organ weight to body weight). The tumors were snap-frozen in liquid nitrogen for gene expression analysis later.
(§2) Serum blood was subjected to biochemical analysis on calcineurin (CaN), estrogen (ES) and vascular endothelial cell growth factor (VEGF) proteins using ELISA kits (FineTest, Wuhan, China), following the manufacturer’s instructions. […] Eluted RNA was quantitated and purity-checked using UV-absorbance-based NanoDrop® (Thermo Scientific, Wilmington, NC, USA) and Agilent 2100 Bioanalyzer RNA 6000 Nano Chip (Agilent, Palo Alto, CA, USA), respectively. […] Threshold cycle (CT) of each gene was analyzed for ΔΔCT after normalization using housekeeping genes in the web-based RT^2 Profiler Data Analysis Software (https://www.qiagen.com/my/shop/genes-and-pathways/data-analysis-center-overview-page/).

[2] = tested on: 84 key human breast cancer genes in MDA-MB-231 xenograft tumor; assay: Human Breast Cancer RT2 Profiler PCR array on excised tumor; type: in vivo, mice; details: TAM-treated vs non-treated, p < 0.05
Procedure: as §1
Serum blood was subjected to biochemical analysis on calcineurin (CaN), estrogen (ES) and vascular endothelial cell growth factor (VEGF) proteins using ELISA kits (FineTest, Wuhan, China), following the manufacturer’s instructions. The Human Breast Cancer RT^2 Profiler PCR array (Rotor-Gene® Format) (PAHS-131ZR, Qiagen® GmbH, Hilden, Germany) was used to profile the expression of 84 genes associated with key human breast cancer pathways. Briefly, total RNA was isolated from pulverized tumor tissues of non-treated (negative control), high-dose M1S9-treated mice and TAM-treated (positive control) using RNeasy® Lipid Tissue Mini kit (Qiagen® GmbH, Hilden, Germany). Three biological replicates were prepared from each group. Eluted RNA was quantitated and purity-checked using UV-absorbance-based NanoDrop® (Thermo Scientific, Wilmington, NC, USA) and Agilent 2100 Bioanalyzer RNA 6000 Nano Chip (Agilent, Palo Alto, CA, USA), respectively. A total of 1000 ng of RNA sample was converted to cDNA using RT^2 First Strand Kit (Qiagen® GmbH, Hilden, Germany) according to the manufacturer’s protocol. The cDNA was then mixed with RT^2 SYBR Green ROX FAST Mastermix and RNase-free water before dispensing into the array and then subjected to Rotor-Gene® Q real time PCR cycler (Qiagen® GmbH, Hilden, Germany) for analysis. Threshold cycle (CT) of each gene was analyzed for ΔΔCT after normalization using housekeeping genes in the web-based RT^2 Profiler Data Analysis Software (https://www.qiagen.com/my/shop/genes-and-pathways/data-analysis-center-overview-page/).

[3] = tested on: MDA-MB-231 xenograft tumor; assay: In vivo tumorigenicity study, MDA-MB-231 xenograft mice; set-up: species or system NOD/ShiJic-SCID mice
Procedure: (§3) Animal study was approved by the UiTM Committee on Animal Research and Ethics (Ethic approval number: UiTM CARE 278/2019 (05/04/2019)). All animal experiments were conducted in accordance with standard ethical guidelines. Six- to eight-week-old female SPF NOD/ShiJic-SCID mice were obtained from Nomura Siam International (Bangkok, Thailand). All mice were housed in the pathogen-free environment under controlled conditions (temperature 20–26 °C, humidity 40–70%, light/dark cycle 12 h/12 h) and received water and food ad libitium. To evaluate the tumorigenesis in the animal model, the highly aggressive MDA-MB-231 cell lines were injected into SCID mice to induce the breast cancer model. MDA-MB-231 cell lines (ATCC® HTB-26™) were grown in Leibovitz’s medium (L15) (HyClone, Rd. Logan, UT, USA) with 10% fetal bovine serum (FBS) (Gibco, Gaithersburg, MD, USA) and 1% penicillin-streptomycin (Beyotime Biotechnology, Haimen, Jiangsu, China) in a humidified incubator at 37 °C without CO2. Mice were subcutaneously injected with 3 × 10^6/100 μL MDA-MB-231 cells into the right flank region in the SCID mice.
as §1

[4] = Body weight and relative organ weight in MDA-MB-231 xenograft mice; type: in vivo, NOD/ShiJic-SCID mice; details: up to eight weeks
Procedure: as §3, with “All mice were housed in the pathogen-free environment under controlled conditions (temperature 20–26 °C, humidity 40–70%, light/dark cycle 12 h/12 h) and received water and food ad libitium.” left out, “HTB-26TM)” for “HTB-26™)”, “Leibovitz's” for “Leibovitz’s”, “mice. […] Body weight and tumor volume were measured weekly up to two months. […] Subsequently, all organs (liver, kidney, spleen, heart and lung) and tumors were excised, weighted and calculated as relative organ weight (expressed as the percentage of organ weight to body weight). […]” for “mice.”

estrogen (ES) = assay: Serum ELISA of estrogen in xenograft mice; type: in vivo; details: TAM 30 mg/kg vs non-treated xenograft mice
[5] = tested on: vascular endothelial cell growth factor (VEGF); assay: Serum ELISA of VEGF in xenograft mice; type: in vivo; details: high-dose M1S9 or TAM 30 mg/kg vs non-treated xenograft mice
Procedure: as §1, §2

Row | Structure (SMILES) | FRAP [1] | CaN protein level (calcineurin (CaN)) | AR gene expression [2] | CTNNB1 gene expression [2] | ESR1 gene expression [2] | IL6 gene expression [2] | MYC gene expression [2] | NR3C1 gene expression [2] | THBS1 gene expression [2] | tumor volume compared to the control mice ([3]; M1S9 all three doses, TAM 30 mg/kg, up to six weeks, p < 0.05) | tumor growth inhibition (highest inhibition rate) ([3]; TAM 30 mg/kg subcutaneously, sixth week) | tumor growth inhibition ([3]; TAM 30 mg/kg subcutaneously, third week) [%] | body weight changes [4] | ES protein level (estrogen (ES)) | VEGF protein level [5]
1 | O=C1O[C@H]([C@@H](O)CO)C(O)=C1O [ascorbic acid] | 172.41 ± 12.6 ^$ µg Trolox/mg | – | – | – | – | – | – | – | – | – | – | – | – | – | –
2 | CC/C(=C(\c1ccccc1)c1ccc(OCCN(C)C)cc1)c1ccccc1 [TAM, tamoxifen] | – | decreased significantly | induced significantly | suppressed significantly | induced significantly | induced significantly | induced significantly | induced significantly | induced significantly | significant reduction | up to 80.5% | 69.1 | no significant difference | decreased significantly | decreased significantly
